Activity calls are given as the source filed them. The calls are words filed in the database; no cut-off is given here.
Columns and labels:
[1] = target: T1, E3 ubiquitin-protein ligase TRIM33 (Homo sapiens) (UniProt Q9UPN9); test: Binding affinity to partial length human TRIM33 (D882 to A1087 residues) expressed in bacterial system at 1 uM by BROMOscan method relative to control
T1 sequence (whole entry): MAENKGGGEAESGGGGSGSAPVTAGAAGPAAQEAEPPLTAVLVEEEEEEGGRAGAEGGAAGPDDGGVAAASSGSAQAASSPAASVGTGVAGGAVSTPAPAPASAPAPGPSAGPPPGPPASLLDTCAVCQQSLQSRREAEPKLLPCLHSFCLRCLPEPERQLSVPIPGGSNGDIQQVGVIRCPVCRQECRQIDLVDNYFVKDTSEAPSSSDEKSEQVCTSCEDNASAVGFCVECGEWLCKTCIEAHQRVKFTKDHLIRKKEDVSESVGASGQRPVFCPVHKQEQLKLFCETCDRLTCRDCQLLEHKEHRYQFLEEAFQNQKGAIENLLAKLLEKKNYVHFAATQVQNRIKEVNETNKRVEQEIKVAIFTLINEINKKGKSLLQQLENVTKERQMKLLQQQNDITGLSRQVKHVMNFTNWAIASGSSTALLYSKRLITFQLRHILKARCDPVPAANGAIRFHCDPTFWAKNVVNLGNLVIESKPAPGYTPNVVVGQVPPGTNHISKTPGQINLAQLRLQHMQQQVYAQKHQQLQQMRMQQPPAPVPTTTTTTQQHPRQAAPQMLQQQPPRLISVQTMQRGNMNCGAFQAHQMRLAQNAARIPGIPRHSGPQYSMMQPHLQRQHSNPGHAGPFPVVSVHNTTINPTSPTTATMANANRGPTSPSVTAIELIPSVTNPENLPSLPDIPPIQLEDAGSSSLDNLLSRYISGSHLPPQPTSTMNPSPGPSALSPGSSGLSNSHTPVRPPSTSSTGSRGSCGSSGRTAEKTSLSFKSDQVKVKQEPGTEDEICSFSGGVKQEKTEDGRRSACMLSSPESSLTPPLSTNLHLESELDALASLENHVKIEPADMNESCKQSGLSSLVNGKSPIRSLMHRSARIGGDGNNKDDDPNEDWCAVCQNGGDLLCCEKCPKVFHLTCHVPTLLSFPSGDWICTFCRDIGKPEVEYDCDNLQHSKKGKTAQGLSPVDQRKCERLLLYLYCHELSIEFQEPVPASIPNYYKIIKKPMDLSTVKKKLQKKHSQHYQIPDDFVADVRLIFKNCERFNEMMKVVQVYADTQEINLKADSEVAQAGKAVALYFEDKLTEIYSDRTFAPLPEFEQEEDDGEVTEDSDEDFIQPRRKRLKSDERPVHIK

[2] = target: Bromodomain-containing protein 2 (Homo sapiens, UniProt P25440); test: Inhibition of human partial length BRD2-BD2 (E348 to D455 residues) expressed in bacterial system at 1 uM by BROMOscan method relative to control
[3] = tested on: Acute myeloid leukemic cell; test: Potentiation of birinapant-induced antileukemic activity against patient derived mouse xenografted acute myeloid leukemic cells assessed as cell viability in absence of bone-marrow derived stromal cell-conditioned medium measured after 72 to 144 hrs by cell-titre glo luminescent assay; type: functional, cell-based; conditions: Homo sapiens, dose microM <=10, time lower […], time upper 144.0 hrs
CCRF-CEM [4] = test: Potentiation of clofarabine-induced antileukemic activity against human CCRF-CEM cells at 4.3 uM in presence of bone-marrow derived stromal cell-conditioned medium; type: functional, cell-based
CCRF-CEM [5] = test: Potentiation of gefitinib-induced antileukemic activity against human CCRF-CEM cells at 4.3 uM in presence of bone-marrow derived stromal cell-conditioned medium; type: functional, cell-based
U-937 [6] = test: Potentiation of AG-221-induced antileukemic activity against human U-937 cells at 4.3 uM in presence of bone-marrow derived stromal cell-conditioned medium; type: functional, cell-based
U-937 [7] = test: Potentiation of cladribine-induced antileukemic activity against human U-937 cells at 4.3 uM in presence of bone-marrow derived stromal cell-conditioned medium; type: functional, cell-based
U-937 [8] = test: Potentiation of daunorubicine-induced antileukemic activity against human U-937 cells at 4.3 uM in presence of bone-marrow derived stromal cell-conditioned medium; type: functional, cell-based
U-937 [9] = test: Potentiation of decitabine-induced antileukemic activity against human U-937 cells at 4.3 uM in presence of bone-marrow derived stromal cell-conditioned medium; type: functional, cell-based
U-937 [10] = test: Potentiation of luminespid-induced antileukemic activity against human U-937 cells at 4.3 uM in presence of bone-marrow derived stromal cell-conditioned medium; type: functional, cell-based
U-937 [11] = test: Potentiation of metformin -induced antileukemic activity against human U-937 cells at 4.3 uM in presence of bone-marrow derived stromal cell-conditioned medium; type: functional, cell-based
U-937 [12] = test: Potentiation of midostaurin-induced antileukemic activity against human U-937 cells at 4.3 uM in presence of bone-marrow derived stromal cell-conditioned medium; type: functional, cell-based
U-937 [13] = test: Potentiation of panobinostat-induced antileukemic activity against human U-937 cells at 4.3 uM in presence of bone-marrow derived stromal cell-conditioned medium; type: functional, cell-based
U-937 [14] = test: Potentiation of ponatinib-induced antileukemic activity against human U-937 cells at 4.3 uM in presence of bone-marrow derived stromal cell-conditioned medium; type: functional, cell-based
U-937 [15] = test: Potentiation of quizartinib-induced antileukemic activity against human U-937 cells at 4.3 uM in presence of bone-marrow derived stromal cell-conditioned medium; type: functional, cell-based
U-937 [16] = test: Potentiation of SGI-110-induced antileukemic activity against human U-937 cells at 4.3 uM in presence of bone-marrow derived stromal cell-conditioned medium; type: functional, cell-based
U-937 [17] = test: Potentiation of sorafenib-induced antileukemic activity against human U-937 cells at 4.3 uM in presence of bone-marrow derived stromal cell-conditioned medium; type: functional, cell-based
MOLM-14 [18] = test: Potentiation of azacitidine-induced antileukemic activity against human MOLM-14 cells at 4.3 uM in presence of bone-marrow derived stromal cell-conditioned medium; type: functional, cell-based
MOLM-14 [19] = test: Potentiation of EPZ5676-induced antileukemic activity against human MOLM-14 cells at 4.3 uM in presence of bone-marrow derived stromal cell-conditioned medium; type: functional, cell-based
MOLM-14 [20] = test: Potentiation of etoposide-induced antileukemic activity against human MOLM-14 cells at 4.3 uM in presence of bone-marrow derived stromal cell-conditioned medium; type: functional, cell-based
MOLM-14 [21] = test: Potentiation of lapatinib-induced antileukemic activity against human MOLM-14 cells at 4.3 uM in presence of bone-marrow derived stromal cell-conditioned medium; type: functional, cell-based
MOLM-14 [22] = test: Potentiation of midostaurin-induced antileukemic activity against human MOLM-14 cells at 4.3 uM in presence of bone-marrow derived stromal cell-conditioned medium; type: functional, cell-based
MOLM-14 [23] = test: Potentiation of palbociclib-induced antileukemic activity against human MOLM-14 cells at 4.3 uM in presence of bone-marrow derived stromal cell-conditioned medium; type: functional, cell-based
MOLM-14 [24] = test: Potentiation of vermurafenib-induced antileukemic activity against human MOLM-14 cells at 4.3 uM in presence of bone-marrow derived stromal cell-conditioned medium; type: functional, cell-based
MOLM-14 [25] = test: Potentiation of volasertib-induced antileukemic activity against human MOLM-14 cells at 4.3 uM in presence of bone-marrow derived stromal cell-conditioned medium; type: functional, cell-based
MOLM-14 [26] = test: Potentiation of VX680-induced antileukemic activity against human MOLM-14 cells at 4.3 uM in presence of bone-marrow derived stromal cell-conditioned medium; type: functional, cell-based

Bromodomain-containing protein 2, sequence (P25440 whole entry, looked up, the tested form may be a part): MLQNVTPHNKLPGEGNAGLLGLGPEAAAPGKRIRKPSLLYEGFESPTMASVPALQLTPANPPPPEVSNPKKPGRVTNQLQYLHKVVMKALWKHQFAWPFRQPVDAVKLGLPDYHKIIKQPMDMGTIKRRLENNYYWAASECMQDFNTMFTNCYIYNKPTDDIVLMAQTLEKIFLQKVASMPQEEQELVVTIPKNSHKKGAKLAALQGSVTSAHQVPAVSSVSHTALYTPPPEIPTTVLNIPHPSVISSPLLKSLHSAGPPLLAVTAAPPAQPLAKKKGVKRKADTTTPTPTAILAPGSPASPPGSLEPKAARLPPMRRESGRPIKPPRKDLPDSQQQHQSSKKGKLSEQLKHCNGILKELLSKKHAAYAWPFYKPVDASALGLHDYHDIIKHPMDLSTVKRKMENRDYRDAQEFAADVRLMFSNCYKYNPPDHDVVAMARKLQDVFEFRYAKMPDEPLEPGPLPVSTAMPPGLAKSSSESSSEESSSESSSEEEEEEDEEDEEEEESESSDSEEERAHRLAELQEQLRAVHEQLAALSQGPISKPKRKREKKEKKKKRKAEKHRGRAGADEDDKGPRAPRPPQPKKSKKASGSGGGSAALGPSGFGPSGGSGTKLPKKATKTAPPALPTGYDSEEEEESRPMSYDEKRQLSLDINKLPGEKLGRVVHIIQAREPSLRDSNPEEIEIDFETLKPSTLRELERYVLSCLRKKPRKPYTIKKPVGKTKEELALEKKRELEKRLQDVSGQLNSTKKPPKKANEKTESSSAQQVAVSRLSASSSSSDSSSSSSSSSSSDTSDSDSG

CC(=O)N1CCc2c(sc3nc(SCC(=O)Nc4cccnc4C)n(Cc4ccco4)c(=O)c23)C1
Activity [1]: 52% | inhibition [2]: 37% | Activity [3]: Dose-Dependent Effect | Activity (CCRF-CEM [4]): inactive | Activity (CCRF-CEM [5]): inactive | Activity (U-937 [6]): inactive | Activity (U-937 [7]): inactive | Activity (U-937 [8]): inactive | Activity (U-937 [9]): inactive | Activity (U-937 [10]): inactive | Activity (U-937 [11]): inactive | Activity (U-937 [12]): inactive | Activity (U-937 [13]): inactive | Activity (U-937 [14]): inactive | Activity (U-937 [15]): inactive | Activity (U-937 [16]): inactive | Activity (U-937 [17]): inactive | Activity (MOLM-14 [18]): inactive | Activity (MOLM-14 [19]): inactive | Activity (MOLM-14 [20]): inactive | Activity (MOLM-14 [21]): inactive | Activity (MOLM-14 [22]): inactive | Activity (MOLM-14 [23]): inactive | Activity (MOLM-14 [24]): inactive | Activity (MOLM-14 [25]): inactive | Activity (MOLM-14 [26]): inactive
